Structures are written as SMILES. Where a name gives a salt, the structure may show the parent alone. Read-outs that look alike come from different tables or passages of the source.

The IC50 is the concentration that gives 50% inhibition. A word on the Kd: it is a measure of binding affinity in units of concentration. Read a low Kd as higher affinity.

The target in experiment [1] is T1, FoxP3 (Homo sapiens, UniProt Q9BZS1).
T1 construct: His-FoxP3 full-length (SPR); His-FoxP3-ΔN (182-421aa) (AlphaScreen, EMSA)
T1 sequence (Q9BZS1 182-421): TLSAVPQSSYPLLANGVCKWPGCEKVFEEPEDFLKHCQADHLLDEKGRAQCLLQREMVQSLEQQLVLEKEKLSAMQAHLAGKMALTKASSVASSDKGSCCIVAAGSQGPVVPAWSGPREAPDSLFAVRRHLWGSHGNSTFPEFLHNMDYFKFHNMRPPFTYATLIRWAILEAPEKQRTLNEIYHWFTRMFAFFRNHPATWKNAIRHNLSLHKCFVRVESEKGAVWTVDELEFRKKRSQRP
Briefly: SPR, concentration-dependent binding to immobilized FoxP3 (KD not given in main text); IC50 is from AlphaScreen FoxP3-DNA competition; EMSA. The source says:
SPR, concentration-dependent binding to immobilized FoxP3 (KD not printed in main text); IC50 is from AlphaScreen FoxP3-DNA competition; EMSA on FoxP3 | we confirmed the concentration-dependent binding of QDD and MP4 to immobilized FoxP3 protein (Figure S6B)

The target of experiment [2] is T1, FoxP3. Briefly: biochemical. Further details: SPR on Biacore T200, His-FoxP3 immobilized on CM5 chip, affinity. Here is the method:
To explore how 9-amino acridines downregulate FoxP3, directly or indirectly, a low-molecular-weight compound screening (low molecular weight [LMW] screen) was performed using surface plasmon resonance (SPR) analysis to determine affinities between FoxP3 and all the compounds listed in Table 1. […] In contrast, we observed low or no affinity for FoxP3 with compounds that had little or no effects on FoxP3 downregulation (such as MP20 and MP25). Furthermore, we confirmed the concentration-dependent binding of QDD and MP4 to immobilized FoxP3 protein (Figure S6B) with dissociation constant (KD) values corresponding to the observed IC50 in the cell-based assay, implying that the function of 9-amino-acridine analogs on FoxP3 regulation might be due to their direct binding ability. SPR, concentration-dependent binding to immobilized FoxP3 (KD not printed in main text); IC50 is from AlphaScreen FoxP3-DNA competition; EMSA on FoxP3 | we confirmed the concentration-dependent binding of QDD and MP4 to immobilized FoxP3 protein (Figure S6B)

The test system of experiment [3] is T2, FoxP3.
T2 construct: endogenous, primary CD4+ T cells
Briefly: cells. On the set-up: species or system primary human CD3+ T cells; flow cytometry of FoxP3+ % in CD4+ T cells, normalized to mock (FoxP3 down-regulation). Conditions: FoxP3 down-regulation in CD4+ T cells, 24 h. Here is the method: To search for potential small molecular FoxP3 inhibitors, we screened the Prestwick library of approved drugs (1,522 compounds) for compounds that regulated the expression of FoxP3 using a novel high-throughput flow cytometry protocol. Primary CD3^+ T cells from healthy donors were treated with compounds from the Prestwick library at 10 μM for 16 h, followed by a high-throughput flow cytometry analysis measuring FoxP3% in CD4^+ T cells (for workflow, see Figure S1A). Compounds that reduced FoxP3 levels compared to DMSO were selected for further validation. The first verified hit was quinacrine dihydrochloride dihydrate (QDD), where we observed a concentration-dependent FoxP3 downregulation with an IC50 of less than 5 μM in all donors tested (Figures 1A and 1B; Table 1, group 0; Figure S2A). QDD was also confirmed to downregulate FoxP3 in Tregs by gating out CD127^+ cells in both non-stimulated and stimulated T cells (Figure S1B). […] In the first round, compounds MP2, MP3, MP4, and MP5 were identified to be working efficiently in downregulating FoxP3 levels (Table 1, group 2; Table S1; Figure S2C). […] Therefore, a small library of similar acridine and acridinone compounds (Table 1, group 3 and 4; Table S1; Figures S2D and S2E) was assembled by in-silico prediction and assessed for their effects on FoxP3 regulation. […]

For the compound `CCN(CC)CCCC(C)Nc1c2cc(OC)ccc2nc2cc(Cl)c(N)cc12` (centres unmarked) [MP4, 3-chloro-N9-[5-(diethylamino)pentan-2-yl]-7-methoxyacridine-2,9-diamine], in experiment [1] (read-out: IC50), the IC50 amounted to 0.37 µM. For the same compound, the Kd in experiment [2] was determined as 6.9 µM.
For `COc1cc(NC(C)CCCN)c2ncccc2c1` (centres unmarked) [Primaquine], the IC50 in experiment [3] is more than 100 µM.
`CCN(CC)CCCC(C)Nc1c2ccc(Cl)cc2nc2ccc(OC)cc12` (centres unmarked) [QDD, 6-chloro-N-[5-(diethylamino)pentan-2-yl]-2-methoxyacridin-9-amine dihydrate dihydrochloride] showed a concentration for half-maximal inhibition (IC50) in experiment [1] of 2 µM. For the same compound, in experiment [2], the dissociation constant Kd turned out to be 4.09 µM.
